For one series, the system named is AVA5 cell line. Particulars: concentration giving 2-fold depression of neutral red dye uptake vs untreated cultures; daily treatment for three days, assessed at 72 hours; ± S.D. The protocol: Compounds were added to dividing cultures daily for three days. […] Intracellular HCV RNA levels and cytotoxicity were assessed 72 hours after treatment.
Quadruplicate cultures for HCV RNA levels and cytoxicity (on 96-well plates) were used. A total of 12 untreated control cultures, and triplicate cultures treated with α-interferon (concentrations of: 10 IU/mL, 3.3 IU/mL, 1.1 IU/mL and 0.37 IU/mL) and 2′C-Me-C (concentrations of: 30 μM, 10 μM, 3.3 μM and 1.1 μM) served as assay controls.
HCV RNA levels in the treated cultures are expressed as a percentage of the mean levels of RNA detected in untreated cultures. The absorbance of the internalized dye at […] (A510) was used for quantitative analysis.
Compounds were dissolved in 100% tissue culture grade DMSO (Sigma, Inc.) at 10 mM. Aliquots of test compounds sufficient for one daily treatment were made in individual tubes and all material was stored at −20° C. For the test, the compounds were suspended into culture medium at room temperature, and immediately added to the cell cultures. Compounds were analyzed separately in two groups with separate assay controls. The concentrations of the test compounds were run at concentrations of 10 μM, 3.3 μM, 1.1 μM and 0.37 μM.

Series [1] relates to HCV RNA-replicating cell line, AVA5 (genotype 1b, subgenomic replicon). Put plainly: HCV replicon assay, intracellular HCV RNA levels by blot hybridization. Format: cell-based, HCV genotype 1b. The settings on record: for EC50: concentration giving 2-fold depression of HCV RNA vs untreated cultures; for EC50 / EC90: normalized to β-actin RNA, daily treatment for three days, assessed at 72 hours, ± S.D.; for EC90: concentration giving 10-fold depression of HCV RNA vs untreated cultures; for Antiviral activity (in words): summary of the Table 1 results in the text. On the technique in general: A replicon is a self-replicating genome or part of one, used to study replication in cells.
Method: Antiviral activity of the test compounds was assessed (Okuse, et al., Antivir. Res. (2005) 65:23) in the stably HCV RNA-replicating cell line, AVA5 (genotype 1b, subgenomic replicon, Blight, et al., Sci. (2000) 290:1972). Compounds were added to dividing cultures daily for three days. […] Intracellular HCV RNA levels and cytotoxicity were assessed 72 hours after treatment.
Intracellular HCV RNA levels were measured using a conventional blot hybridization method, in which HCV RNA levels are normalized to the levels of β-actin RNA in each individual culture (Okuse, et al., Antivir. Res. (2005) 65:23). Cytotoxicity was measured using an established neutral red dye uptake assay (Korba and Gerin, Antivir. Res. (1992) 19:55; Okuse, et al., Antivir. Res. (2005) 65:23). HCV RNA levels in the treated cultures are expressed as a percentage of the mean levels of RNA detected in untreated cultures. The absorbance of the internalized dye at 510 nM (A510) was used for quantitative analysis.
Values presented (±standard deviations [S.D.]) were calculated by linear regression analysis using data combined from all treated cultures. S.D. was calculated using the standard error of regression generated from the linear regression analyses (QuattroPro™).

SMILES strings stand for the structures.

In the series on AVA5 cell line, `CCOC(=O)C(COC(C)=O)(COP(=O)(OC[C@H]1O[C@@H](n2cnc(C(N)=O)n2)[C@H](O)[C@@H]1O)OCC(COC(C)=O)(C(=O)OCC)C(=O)OCC)C(=O)OCC` [Compound 14, Ribavirin 5′-bis[3-acetyloxy-2,2-bis(ethoxycarbonyl)propyl]phosphate] yielded a half-maximal cytotoxic concentration (CC50) of 9.7 ± 0.2 µM. In addition, in series [1], the EC50 stood at 1.6 ± 0.2 µM, the 90% effect level (EC90) was put at 4.4 ± 0.4 µM and the “Antiviral activity (in words)” value is on record as “markedly more active compared to compound 12”.

In the series on AVA5 cell line, `COC(=O)[C@H](C)NP(=O)(OC[C@H]1O[C@@H](n2cnc(C(N)=O)n2)[C@H](O)[C@@H]1O)Oc1ccccc1` (some centres unmarked) [Compound 12] displayed a 50% cytotoxic concentration (CC50) of over 100 µM. Also, in series [1], the EC50 was over 100 µM, the EC90 was over 100 µM and the “Antiviral activity (in words)” value was “inactive”.

What is called CC50 is the concentration that lowers cell viability or growth by half. Lower therefore signals harm at low concentration. One may read the EC50 as the concentration needed to bring the measured effect to its halfway point. Higher therefore signals a less potent agent. By EC90 is commonly meant the point of the concentration-response curve where the effect stands at 90%.

Values taken from US20090176732A1, “PROTECTED NUCLEOTIDE ANALOGS” (Alios BioPharma Inc., priority 2007, published 2009).
